Converted amounts (≈) assume the structure as drawn. Each block holds one compound with its values, some of them ahead of it.
Key:
USP30 = USP30 (Homo sapiens (Human), UniProt Q70CQ3); experiment: USP30 biochemical IC50 assay (fluorescence polarisation); conditions: biochemical FP assay, 30 min enzyme/compound incubation
Experimental: Compounds of the invention may be tested for USP30 affinity using the in vitro biochemical fluorescence polarization (FP) assay described herein.
Dilution plates were prepared at 21 times the final concentration (2100 µM for a final concentration of 100 µM) in 50% DMSO in a 96-well polypropylene V-bottom plate (Greiner #651201). A typical 8-point dilution series would be 100, 30, 10, 3, 1, 0.3, 0.1, 0.03 µM final. Reactions were performed in duplicate in black 384 well plates (small volume, Greiner 784076) in a final reaction volume of 21 µl. Either 1 µl of 50% DMSO or diluted compound was added to the plate. USP30 (Boston Biochem #E582) was diluted in reaction buffer (40 mM Tris, pH 7.5, 0.005% Tween 20, 0.5 mg/ml BSA, 5 mM beta-mercaptoethanol) to achieve a final assay concentration of 4 nM, and 10 µl of diluted USP30 was added to the compound. Enzyme and compound were incubated for 30 min at room temp. Reactions were initiated by the addition of 50 nM of TAMRA labelled peptide linked to ubiquitin via an iso-peptide bond as fluorescence polarisation substrate. Reactions were read immediately after addition of substrate and following a 2-hour incubation at room temperature. Readings were performed on a Pherastar Plus (BMG Labtech). λ Excitation 540 nm; λ Emission 590 nm.

[1] = test system: USP2, USP6, USP10, USP16, USP21, USP25, USP28; experiment: DUB IC50 selectivity panel (seven DUBs); type: biochemical; conditions: range over the seven DUBs
Cathepsin B = Cathepsin B (Homo sapiens (Human), UniProt P07858); experiment: Cathepsin B IC50; type: biochemical
Cathepsin L = Cathepsin L (Homo sapiens (Human), UniProt P07711); experiment: Cathepsin L IC50; type: biochemical
Cathepsin L, sequence (P07711 114-333, species assumed): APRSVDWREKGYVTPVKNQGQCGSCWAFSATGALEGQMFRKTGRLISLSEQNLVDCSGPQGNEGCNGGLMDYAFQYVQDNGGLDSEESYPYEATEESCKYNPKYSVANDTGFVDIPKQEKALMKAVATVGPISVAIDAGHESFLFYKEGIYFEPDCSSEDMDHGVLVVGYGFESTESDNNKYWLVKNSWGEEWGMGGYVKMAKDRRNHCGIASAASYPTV

Cathepsin V = Cathepsin V (Homo sapiens (Human), UniProt O60911); experiment: Cathepsin V IC50; type: biochemical
Cathepsin V, sequence (O60911 114-334, species assumed): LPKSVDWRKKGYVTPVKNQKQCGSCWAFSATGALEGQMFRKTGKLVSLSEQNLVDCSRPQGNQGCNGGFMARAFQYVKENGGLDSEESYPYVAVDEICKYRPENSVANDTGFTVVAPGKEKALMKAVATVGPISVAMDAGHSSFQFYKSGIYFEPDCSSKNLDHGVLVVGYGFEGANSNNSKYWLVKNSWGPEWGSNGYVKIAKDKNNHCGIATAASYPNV

Hepatocyte Cl mouse = type: in vitro ADME; conditions: mouse hepatocytes
Experimental: Hep Cl mouse: in vitro hepatocyte clearance in mouse cells.
(§1) Clu: in vitro clearance. Clu as defined here is the scaled clearance, in turn calculated from the intrinsic clearance. The intrinsic clearance is the predicted clearance due to hepatic metabolic reactions, determined from incubation of a compound in a hepatocyte preparation.

Mouse plasma stability = type: in vitro ADME; conditions: for half-life: read-out: Stability Mouse plasma t½
Source text: Other parameters that may be measured using standard assays that are indicative of a compound’s exposure profile include, for example plasma stability (half-life measurement), blood AUC, Cmax, Cmin and Tmax values.

UCHL1 = UCHL1 (Homo sapiens (Human), UniProt P09936); experiment: UCHL1 DUB IC50; type: biochemical
UCHL1, sequence (P09936 whole entry, species assumed): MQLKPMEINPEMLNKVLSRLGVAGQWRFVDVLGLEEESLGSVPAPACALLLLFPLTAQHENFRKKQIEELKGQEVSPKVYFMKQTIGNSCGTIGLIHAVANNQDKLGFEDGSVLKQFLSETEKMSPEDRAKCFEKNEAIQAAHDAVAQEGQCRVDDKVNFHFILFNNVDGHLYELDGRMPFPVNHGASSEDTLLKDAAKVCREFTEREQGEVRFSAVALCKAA

[2] = test system: cathepsins (B, K, L, S and V); experiment: Cathepsin IC50 panel, summary over B, K, L, S, V; type: biochemical; conditions: range over the five cathepsins
[3] = test system: Eurofins CEREP SafetyScreen44 panel; experiment: Eurofins CEREP SafetyScreen44 panel profiling; type: binding; conditions: single concentration of 10 µM
Source text: Aside from selectivity over other DUB enzymes, it is important for a drug to have low affinity for other targets, and pharmacological profiling may be performed against panels of targets to assess the potential for, and to minimise, potential off-target effects. Examples of targets for which the compounds of the present invention may be screened against are those of the industry standard Eurofins-Cerep SafetyScreen44 panel, which includes 44 targets as a representative selection of GPCR receptors, transporters, ion channels, nuclear receptors, and kinase and non-kinase enzymes. Preferably, compounds of the invention have insignificant affinity against targets of this screening panel. Further examples of targets for which the compounds of the present invention may be screened against are kinases of the Thermo Fisher SelectScreen kinase profiling panel, which includes 39 targets as a representative selection of kinase enzymes. Preferably, compounds of the invention have insignificant affinity against targets of this screening panel. Additionally, examples of a particular enzyme class for which the compounds of the present invention may be screened against are the cathepsins (e.g. cathepsin A, B, C, H, K, L, L2, S, V and Z). Preferably, compounds of the invention have good selectivity for USP30 over one or more of these enzymes.

hERG potassium channel = hERG potassium channel (Homo sapiens (Human), UniProt Q12809); experiment: hERG potassium channel current in stably expressed CHO cells; type: cell-based; conditions: at 30 µM, 0.01 to 30 µM tested
hERG potassium channel, sequence (Q12809 whole entry): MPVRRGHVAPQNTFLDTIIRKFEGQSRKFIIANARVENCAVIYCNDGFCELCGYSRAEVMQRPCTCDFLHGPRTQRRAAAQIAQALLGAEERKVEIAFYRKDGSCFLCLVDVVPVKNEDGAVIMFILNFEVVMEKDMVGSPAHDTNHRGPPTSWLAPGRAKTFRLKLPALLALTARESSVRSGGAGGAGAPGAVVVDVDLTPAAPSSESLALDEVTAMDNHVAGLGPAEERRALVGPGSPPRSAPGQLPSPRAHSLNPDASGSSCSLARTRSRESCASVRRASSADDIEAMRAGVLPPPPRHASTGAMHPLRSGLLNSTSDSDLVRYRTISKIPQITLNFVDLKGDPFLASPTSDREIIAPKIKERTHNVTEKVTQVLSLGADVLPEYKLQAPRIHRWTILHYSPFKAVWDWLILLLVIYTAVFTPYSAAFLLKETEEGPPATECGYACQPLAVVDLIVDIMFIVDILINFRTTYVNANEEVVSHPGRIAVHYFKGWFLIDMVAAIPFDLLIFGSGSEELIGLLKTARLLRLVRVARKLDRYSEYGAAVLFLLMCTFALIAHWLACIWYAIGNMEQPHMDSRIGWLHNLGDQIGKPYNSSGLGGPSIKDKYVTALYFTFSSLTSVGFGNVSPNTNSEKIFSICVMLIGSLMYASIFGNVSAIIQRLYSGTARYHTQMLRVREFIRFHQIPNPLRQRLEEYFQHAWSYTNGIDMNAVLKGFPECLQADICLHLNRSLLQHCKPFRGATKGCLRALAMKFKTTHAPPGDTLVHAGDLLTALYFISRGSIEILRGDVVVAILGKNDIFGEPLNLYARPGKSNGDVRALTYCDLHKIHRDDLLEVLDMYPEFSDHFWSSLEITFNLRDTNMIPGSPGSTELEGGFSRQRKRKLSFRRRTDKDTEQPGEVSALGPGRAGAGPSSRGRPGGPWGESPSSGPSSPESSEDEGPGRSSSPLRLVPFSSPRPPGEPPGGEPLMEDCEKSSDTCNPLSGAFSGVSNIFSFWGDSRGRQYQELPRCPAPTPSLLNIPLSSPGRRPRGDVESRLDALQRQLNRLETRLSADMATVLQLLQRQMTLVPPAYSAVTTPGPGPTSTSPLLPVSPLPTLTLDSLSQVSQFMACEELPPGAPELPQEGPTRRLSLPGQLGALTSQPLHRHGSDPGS
Source text: The hERG predictor assay provides valuable information about the possible binding of test compounds to the potassium channel and potential QT prolongation on […]. Inhibition of the hERG current causes QT interval prolongation resulting in potentially fatal ventricular tachyarrhythmia (Torsades de Pointes). Typically, assay data may be generated from an automated patch-clamp assay platform.

TK6 cells = experiment: In vitro micronucleus assay; type: cell-based; conditions: 27 hours recovery
Experimental: The micronucleus assay may be used to determine if a compound is genotoxic by evaluating the presence of micronuclei. Micronuclei may contain chromosome fragments produced from DNA breakage (clastogens) or whole chromosomes produced by disruption of the mitotic apparatus (aneugens).
Induction of chromosome damage was assessed using the in vitro micronucleus assay in TK6 cells.

[4] = test system: HCT116 human colorectal carcinoma cells; experiment: In vitro cytotoxicity (Cell Tox), alamarBlue; type: cell-based; conditions: HCT-116, 96-hour continual compound exposure
Source text: There is also a need for compounds that have a favourable safety profile, which may be measured by a variety of standard in vitro and in vivo methods. A cell toxicity counter-screen may be used to assay the anti-proliferative/cytotoxic effect in a particular cell line (e.g. HCT116) by fluorometric detection of rezasurin (alamarBlue™) to resofurin in response to mitochondrial activity.
In Vitro Cytotoxicity (Cell Tox): Measured in HCT116 human colorectal carcinoma cells using alamarBlue™ as the assay endpoint. Compound cytotoxicity was measured over a period of 96-hour continual compound exposure.

[5] = Log D lipophilicity measurement; type: physicochemical; conditions: pH 7.4; read-out: Log D measured at pH 7.4
Source text: log D: distribution co-efficient; lipophilicity measurement.

Turbidimetric solubility = type: physicochemical; conditions: aqueous buffer, kinetic from dmso stock
Source text: The solubility of a compound is an important factor in achieving a desired concentration of drug in systemic circulation for the anticipated pharmacological response. Low aqueous solubility is a problem encountered with formulation development of new chemical entities and to be absorbed a drug must be present in the form of solution at the site of absorption. The kinetic solubility of a compound may be measured using a turbidimetric solubility assay, the data from which may also be used in conjunction with Caco-2 permeability data to predict dose dependent human intestinal absorption.
Turbidimetric solubility: Test compound solution prepared in DMSO diluted into aqueous buffer. Turbidimetry is used as the end-point by measuring absorbance at 620 nm.

FaSSIF solubility = type: physicochemical; conditions: pH 6.5, fasted state simulated intestinal fluid
Source text: FaSSIF: simulated intestinal fluid in fasted state measured at pH 6.5.

Hepatocyte Cl human = type: in vitro ADME; conditions: human hepatocytes
Experimental: Hep Cl human: in vitro hepatocyte clearance in human cells.
as §1

WT-MDCK in vitro flux = type: in vitro ADME; conditions: dog
[6] = Plasma binding mouse (equilibrium dialysis); type: in vitro ADME; conditions: read-out: Binding Mouse Plasma fu,p
Source text: (§2) Plasma fu,p: The free fraction of a compound in plasma preparation determined by in vitro equilibrium dialysis. It is understood that only unbound (free) compound is capable of engaging with the target. Brain fu,br: The free fraction of a compound in brain homogenate preparation determined by in vitro equilibrium dialysis. It is understood that only unbound (free) compound is capable of engaging with the target.

[7] = Brain homogenate binding mouse (equilibrium dialysis); type: in vitro ADME; conditions: read-out: Binding Mouse Brain fu,br
Source text: as §2

PK mouse (IV and oral) = type: in vivo; conditions: plasma
Source text: Cl in vivo clearance: Pharmacokinetic measurement of the volume of plasma (or any matrix) from which a substance is completely removed per unit time.

Mouse PK microdialysis = type: in vivo
Source text: (§3) Kpuu is the ratio of unbound drug in brain to unbound drug in plasma and may be indicative of potential for treating peripheral and/or CNS indications.

Rat PK microdialysis = type: in vivo; conditions: microdialysis 30 mg/kg po
Source text: as §3

Dog PK (CSF) = type: in vivo
Source text: as §3

UUO injured kidneys = experiment: Unilateral ureteral obstructive kidney disease model (UUO); type: in vivo, C57BL/6 mice; conditions: 10 days
Source text: UUO causes renal injury characterised by tubular cell injury, interstitial inflammation and fibrosis. It serves as a model of irreversible post-renal acute kidney injury (AKI). Experimental UUO has illustrated the molecular mechanisms of apoptosis, inflammation and fibrosis, all of which are key processes in renal injury, regardless of the primary insult. Consequently, the UUO model provides investigators information beyond obstruction (Chevalier et al, 2009, Kidney Int 75(11): 1145-1152). Example 1 was assessed in the UUO model to determine the ability of the compound to attenuate progressive tubulointerstitial fibrosis and chronic kidney disease (CKD). […] Two hours post dosing on day 1 study mice underwent surgery to ligate the left ureter at two points. Successful UUO surgery was later confirmed by observation of dilation of renal pelvis due to hydronephrosis. The animals were dosed according to their prescribed regimen for 10 days at which point kidneys were harvested, or histopathology assessment and for protein/RNA assessment. Picrosirius Red staining was performed to assess the extent of collagen deposition and IHC was employed to assess relative α-Smooth Muscle Actin (α-SMA) expression.

[8] = test system: Salmonella typhimurium strains TA98, TA100, TA1535 and TA97a and the Escherichia Coli strain WP2 uvrA pKM101; experiment: Bacterial reverse mutation assay (Ames); conditions: up to 5000 µg/plate with and without metabolic activation
Experimental: The bacterial reverse mutation assay (Ames Test) may be used to evaluate the mutagenic properties of compounds of the invention, commonly by using the bacterial strain Salmonella typhimurium, which is mutant for the biosynthesis of the amino acid histidine.
All in vitro tests were conducted with and without exogenous metabolic activation using concentrations up to those limited by cytotoxicity or insolubility.

USP30, sequence (Q70CQ3 57-517): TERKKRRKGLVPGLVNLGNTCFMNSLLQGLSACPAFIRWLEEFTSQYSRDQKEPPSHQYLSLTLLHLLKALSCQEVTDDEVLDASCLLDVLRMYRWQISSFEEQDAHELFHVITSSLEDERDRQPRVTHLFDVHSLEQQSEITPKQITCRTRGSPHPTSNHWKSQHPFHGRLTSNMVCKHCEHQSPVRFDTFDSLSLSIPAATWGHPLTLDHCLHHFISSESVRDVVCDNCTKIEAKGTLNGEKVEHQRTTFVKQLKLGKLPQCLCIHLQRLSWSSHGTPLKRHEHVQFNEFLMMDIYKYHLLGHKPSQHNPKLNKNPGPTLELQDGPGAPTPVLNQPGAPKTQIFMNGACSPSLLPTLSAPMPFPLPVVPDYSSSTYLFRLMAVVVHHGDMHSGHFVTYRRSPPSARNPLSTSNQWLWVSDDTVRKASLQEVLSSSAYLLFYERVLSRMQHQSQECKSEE

- IC50 (USP30): 0.072 µM
- IC50 [1]: 4 to 92.4 µM
- IC50 (Cathepsin B): 1.2 µM
- IC50 (Cathepsin L): 1.3 µM
- IC50 (Cathepsin V): 18.5 µM
- Hepatocyte Cl mouse scaled Clu (Hepatocyte Cl mouse): 108 mL/min/kg
- half-life (Mouse plasma stability): 16 min
Compound: Cc1cc(-c2cccc(C(=O)N3CC[C@@H]4CN(C#N)C[C@@H]43)c2)ccn1 [Reference Example C]

- fold more potent against USP30 than UCHL1 (UCHL1): 0.8 fold
Compound: N#CN1CC[C@H](C(=O)Nc2ncc(-c3ccccc3)s2)C1 [D]

Compound: C[C@@H]1[C@H]2CCN(C(=O)c3ncc(-c4ccnc(C#N)c4)o3)[C@H]2CN1C#N (single isomer, unassigned) [Example 1]
- IC50 [1]: 24.9 to 107 µM
- IC50 (UCHL1): > 300 µM
- IC50 (Cathepsin B): 205 µM
- IC50 (Cathepsin L): 42.1 µM
- IC50 (Cathepsin V): 247 µM
- IC50 [2]: ≥ 42.1 µM
- inhibition of binding or enzyme activity against all targets in the panel [3]: less than 50%
- maximum inhibition of the hERG current amplitude (hERG potassium channel): 27%
- induction of micronuclei (TK6 cells; 3 hours in the presence of exogenous metabolic activation): negative
- induction of micronuclei (TK6 cells; 27 hours in the absence of exogenous metabolic activation): negative
- EC50 [4]: > 30 µM
- logD [5]: 1.4
- solubility (Turbidimetric solubility): 65 µM (≈ 22.6 µg/mL)
- FaSSIF (µM) measured at pH 6.5 (FaSSIF solubility): 488 µM
- Hepatocyte Cl mouse scaled Clu (Hepatocyte Cl mouse): 40 mL/min/kg
- Hepatocyte Cl human scaled Clu (Hepatocyte Cl human): 18 mL/min/kg
- improved plasma stability compared to Reference Examples A, B and C (Mouse plasma stability): 2 to 8 fold
- half-life (Mouse plasma stability): > 120 min
- Papp A→B (WT-MDCK in vitro flux): 16 ×10⁻⁶ cm/s
- fraction unbound [6]: 0.14
- fraction unbound [7]: 0.3
- bioavailability (PK mouse (IV and oral); po, mouse 10 mg/kg, read-out: Oral F (%)): 87%
- clearance (PK mouse (IV and oral); mouse 2 mg/kg IV, read-out: Cl plasma): 19 mL/min/kg
- CNS distribution in vivo by microdialysis sampling of brain regions (Mouse PK microdialysis; 30 mg/kg oral dose in mice and rats): high CNS distribution
- Mouse Kpuu (PFCu/plasmau) (Mouse PK microdialysis; microdialysis 30 mg/kg po): 0.90
- Mouse PFCu/cell TOM20-Ub (Mouse PK microdialysis; microdialysis 30 mg/kg po): 125-fold
- Rat Kpuu (PFCu/plasmau) (Rat PK microdialysis): 0.43
- Dog Kpuu (CSF/plasmau) (Dog PK (CSF); 30 mg/kg po): 0.41
- partition to the cerebro-spinal fluid (CSF) (Dog PK (CSF); dogs, 30 mg/kg orally): high partition
- α-SMA levels in UUO injured kidneys vs vehicle (UUO injured kidneys; 1.5 mg/kg oral BID): statistical reduction in α-SMA levels
- collagen deposition (picrosirius red staining) in ligated kidneys (UUO injured kidneys; 1.5 mg/kg p.o. BID): statistically reduced collagen deposition
- collagen deposition (picrosirius red staining) in ligated kidneys (UUO injured kidneys; 5 mg/kg p.o. BID): statistically reduced collagen deposition
- induction of mutations in reverse mutation assay [8]: did not induce mutations

- IC50 (USP30): 0.07 µM
- IC50 [1]: 0.54 to 38.8 µM
- IC50 (Cathepsin B): 1.4 µM
- IC50 (Cathepsin L): 1.8 µM
- IC50 (Cathepsin V): 2.3 µM
- Hepatocyte Cl mouse scaled Clu (Hepatocyte Cl mouse): > 121 mL/min/kg
- half-life (Mouse plasma stability): 21 min
Compound: COc1ccc(-c2cc(C(=O)N3CC[C@@H]4CN(C#N)C[C@@H]43)on2)cc1 [B]

- fold more potent against USP30 than UCHL1 (UCHL1): 1.5 fold
Compound: CC1CC(C(=O)Nc2ncc(-c3ccccc3)s2)CN1C#N (stereo not shown) [Reference Example E]
